Here are results for 14 molecules from US20250084056A1, “SUBSTITUTED OXOISOINDOLINYL PIPERIDINE-2,6-DIONE COMPOUNDS” (BRISTOL-MYERS SQUIBB COMPANY, priority 2023, published 2025).

Format in all cases: cell-based
For one assay, the target named is GSPT1 (Homo sapiens, UniProt P15170+Q96SW2). Nature of the assay: GSPT1 Cellular Degradation Assay (DF15-GSPT1-ePL). Details: expressed in transfected cells. Particulars: DF15-GSPT1-ePL cells, 20 hours. In short, it runs like this:
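DC50 and Dmax were derived from chemiluminescence, with 75% response set by the reference compound at […]. Readout was ePL enzyme-fragment complementation in a DF15 line expressing chimeric GSPT1. Cells were exposed to compound for 20 h at 37 °C in RPMI 1640 with 10% FBS, cooled 30 min, then lysed with substrate for 60 min.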

For another assay, the target named is Cyclin E1 (Homo sapiens, UniProt P24864+Q96SW2). Nature of the assay: Cyclin E1 Cellular Degradation Assay (MSD). Particulars: for DC50 / Dmax: Cyclin E1 cellular degradation; for Dmax: maximum degradation; for Ratio of GSPT1 DC50/Cyclin E1 DC50: selectivity for degradation of Cyclin E1 over GSPT1. Details: endogenous in cells; host or cells: OVCAR3. In short, it runs like this:
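Cyclin E1 remaining after 24 h compound exposure of OVCAR3 cells was quantified in lysates by electrochemiluminescent MSD sandwich assay. DC50 (50% response concentration) and Dmax (maximum response) were calculated, with 110% response set by a reference compound at […].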

In a further assay the test system is Phospho-Rb (Ser807/811). Nature of the assay: Phospho-Retinoblastoma (pRB) Cellular Assay. Particulars: Homo sapiens, OVCAR-3, NIH OVCAR3 cells, 24 hours; for pIC50: concentration giving 50% response; for Emax: maximum response, reference compound at 10 μM = 100%, read-out: pRB Ymax. In short, it runs like this:
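Phospho-Rb (Ser807/811) kit read-out on EnVision after lysis (≥4 h, room temperature, dark) of OVCAR3 cells exposed to compound dilutions for 24 h. IC50 and maximum response Ymax are relative to a 10 μM reference compound defining 100%.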

Molecules are shown by their SMILES. pIC50: −log10 of the molar value.

GSPT1, sequence (P15170 whole entry, the tested form may be a part): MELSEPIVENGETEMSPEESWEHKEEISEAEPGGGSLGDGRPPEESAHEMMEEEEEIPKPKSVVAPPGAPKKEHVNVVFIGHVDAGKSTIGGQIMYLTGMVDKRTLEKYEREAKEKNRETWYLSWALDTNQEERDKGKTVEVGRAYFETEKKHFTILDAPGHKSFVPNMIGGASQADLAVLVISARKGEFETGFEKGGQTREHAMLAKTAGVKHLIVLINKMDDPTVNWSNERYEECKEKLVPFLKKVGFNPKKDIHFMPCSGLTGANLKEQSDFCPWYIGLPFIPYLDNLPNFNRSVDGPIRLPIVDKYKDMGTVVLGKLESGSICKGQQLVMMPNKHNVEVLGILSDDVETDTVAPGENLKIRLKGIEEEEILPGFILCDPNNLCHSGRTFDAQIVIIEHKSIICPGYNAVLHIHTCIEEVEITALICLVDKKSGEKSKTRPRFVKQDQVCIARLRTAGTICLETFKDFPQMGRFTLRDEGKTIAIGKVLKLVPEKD
GSPT1, sequence (Q96SW2 whole entry, the tested form may be a part): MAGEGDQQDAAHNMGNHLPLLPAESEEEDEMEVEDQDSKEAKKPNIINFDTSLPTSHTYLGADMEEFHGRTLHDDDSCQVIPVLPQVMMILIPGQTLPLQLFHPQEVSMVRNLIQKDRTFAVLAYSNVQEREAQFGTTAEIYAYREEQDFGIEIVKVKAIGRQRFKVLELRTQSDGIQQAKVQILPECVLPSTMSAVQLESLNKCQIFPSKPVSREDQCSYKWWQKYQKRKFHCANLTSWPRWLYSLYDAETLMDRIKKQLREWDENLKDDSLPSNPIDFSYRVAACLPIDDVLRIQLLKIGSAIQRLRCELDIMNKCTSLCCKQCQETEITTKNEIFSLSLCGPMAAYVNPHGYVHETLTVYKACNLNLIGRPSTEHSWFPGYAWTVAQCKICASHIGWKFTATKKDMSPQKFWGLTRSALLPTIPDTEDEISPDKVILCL
GSPT1, sequence (Q16531 whole entry partner, the tested form may be a part): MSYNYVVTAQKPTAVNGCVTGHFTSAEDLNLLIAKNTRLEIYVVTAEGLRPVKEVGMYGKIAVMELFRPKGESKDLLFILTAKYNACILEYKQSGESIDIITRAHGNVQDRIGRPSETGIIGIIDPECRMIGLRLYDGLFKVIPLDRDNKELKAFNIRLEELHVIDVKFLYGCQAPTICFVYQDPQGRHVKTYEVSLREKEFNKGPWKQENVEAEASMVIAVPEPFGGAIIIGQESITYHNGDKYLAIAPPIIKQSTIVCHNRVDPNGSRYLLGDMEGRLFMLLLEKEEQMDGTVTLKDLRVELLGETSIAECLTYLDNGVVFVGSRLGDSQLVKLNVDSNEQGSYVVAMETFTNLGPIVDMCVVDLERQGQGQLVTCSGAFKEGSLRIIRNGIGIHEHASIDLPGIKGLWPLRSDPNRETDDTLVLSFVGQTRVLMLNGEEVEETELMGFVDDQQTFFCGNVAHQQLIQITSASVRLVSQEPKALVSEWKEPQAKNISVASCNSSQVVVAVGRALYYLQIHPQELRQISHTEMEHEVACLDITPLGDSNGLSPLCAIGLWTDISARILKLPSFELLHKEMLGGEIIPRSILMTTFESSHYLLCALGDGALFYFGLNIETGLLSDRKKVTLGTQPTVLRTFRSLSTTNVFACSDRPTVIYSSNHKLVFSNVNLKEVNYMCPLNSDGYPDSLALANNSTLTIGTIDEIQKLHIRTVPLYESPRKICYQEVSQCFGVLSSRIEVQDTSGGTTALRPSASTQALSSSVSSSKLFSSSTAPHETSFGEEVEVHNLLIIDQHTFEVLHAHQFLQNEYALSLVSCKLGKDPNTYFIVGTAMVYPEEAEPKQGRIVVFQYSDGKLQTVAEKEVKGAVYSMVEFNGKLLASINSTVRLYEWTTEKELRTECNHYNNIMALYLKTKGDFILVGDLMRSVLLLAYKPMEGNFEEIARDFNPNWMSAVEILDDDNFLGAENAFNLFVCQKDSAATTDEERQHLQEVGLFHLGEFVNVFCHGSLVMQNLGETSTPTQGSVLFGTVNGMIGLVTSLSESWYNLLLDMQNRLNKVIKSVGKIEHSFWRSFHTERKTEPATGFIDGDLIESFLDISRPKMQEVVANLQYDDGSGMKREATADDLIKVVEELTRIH
Cyclin E1, sequence (P24864 whole entry): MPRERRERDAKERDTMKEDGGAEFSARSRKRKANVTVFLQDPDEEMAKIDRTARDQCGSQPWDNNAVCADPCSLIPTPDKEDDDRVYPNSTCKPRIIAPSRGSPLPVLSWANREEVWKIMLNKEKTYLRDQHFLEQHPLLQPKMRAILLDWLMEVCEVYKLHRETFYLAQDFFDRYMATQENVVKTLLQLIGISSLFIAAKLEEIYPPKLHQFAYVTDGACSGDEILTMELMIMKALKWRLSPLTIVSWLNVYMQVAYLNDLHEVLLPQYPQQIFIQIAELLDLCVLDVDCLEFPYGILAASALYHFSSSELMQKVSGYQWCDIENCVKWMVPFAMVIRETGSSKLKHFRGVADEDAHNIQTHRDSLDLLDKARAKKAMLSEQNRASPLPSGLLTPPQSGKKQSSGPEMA
Cyclin E1, sequence (Q96SW2 whole entry): as the sequence (Q96SW2 whole entry, the tested form may be a part) above
Cyclin E1, sequence (Q16531 whole entry partner): as the sequence (Q16531 whole entry partner, the tested form may be a part) above

With `COc1c(COC(=O)Nc2ccc(Oc3cccc(F)c3F)cc2F)ccc2c1C(=O)N(C1CCC(=O)NC1=O)C2` (centres unmarked) [Example 22, [2-(2,6-dioxopiperidin-3-yl)-4-methoxy-3-oxo-2,3-dihydro-1H-isoindol-5-yl]methyl N-[4-(2,3-difluorophenoxy)-2-fluorophenyl]carbamate], on GSPT1, the DC50 worked out at 11.4 µM and the Dmax was determined as 57%. Besides, at Cyclin E1, it took 0.026 µM to reach half-maximal degradation (DC50), the Dmax stood at 109% and the “Ratio of GSPT1 DC50/Cyclin E1 DC50” value amounted to 431. Also, in the assay on Phospho-Rb (Ser807/811), the pIC50 was 6.58 and the Emax turned out to be 97%.

On to `COc1c(COC(=O)Nc2ccc(Oc3ccc(F)c(F)c3)cc2)ccc2c1C(=O)N(C1CCC(=O)NC1=O)C2` (centres unmarked) [Example 1, [2-(2,6-dioxopiperidin-3-yl)-4-methoxy-3-oxo-2,3-dihydro-1H-isoindol-5-yl]methyl N-[4-(3,4-difluorophenoxy)phenyl]carbamate], for which, on GSPT1, the DC50 is more than 14 µM and the Dmax came out at 27%. Besides, on Cyclin E1, the DC50 stood at 0.199 µM, the Dmax stood at 110% and the “Ratio of GSPT1 DC50/Cyclin E1 DC50” value is on record as more than 70. In addition, in the assay with Phospho-Rb (Ser807/811), the pIC50 is 6.88 and the Emax is 104%.

As for `COc1c(COC(=O)Nc2ccc(C(C)(C)c3ccccc3)cc2)ccc2c1C(=O)N(C1CCC(=O)NC1=O)C2` (centres unmarked) [Example 41, [2-(2,6-dioxopiperidin-3-yl)-4-methoxy-3-oxo-2,3-dihydro-1H-isoindol-5-yl]methyl N-[4-(2-phenylpropan-2-yl)phenyl]carbamate], on GSPT1, the DC50 was more than 14 µM and the Dmax worked out at 13%. Moreover, on Cyclin E1, half-maximal degradation (DC50) was put at 0.336 µM, the Dmax stood at 92% and the “Ratio of GSPT1 DC50/Cyclin E1 DC50” value is recorded as more than 42. Moreover, in the assay on Phospho-Rb (Ser807/811), the pIC50 is 6.61 and the Emax amounted to 100%.

`COc1cc(Oc2ccc(F)c(Cl)c2)ccc1NC(=O)OCc1ccc2c(c1OC)C(=O)N(C1CCC(=O)NC1=O)C2` (centres unmarked) [Example 100, [2-(2,6-dioxopiperidin-3-yl)-4-methoxy-3-oxo-2,3-dihydro-1H-isoindol-5-yl]methyl N-[4-(3-chloro-4-fluorophenoxy)-2-methoxyphenyl]carbamate]: on GSPT1, the DC50 is more than 14 µM and the Dmax was 33%. Besides, at Cyclin E1, the DC50 was found to be 0.327 µM, the Dmax was 112% and the “Ratio of GSPT1 DC50/Cyclin E1 DC50” value is more than 43. For the same molecule, in the assay with Phospho-Rb (Ser807/811), the pIC50 is 6.85 and the Emax was determined as 118%.

In the case of `COc1c(COC(=O)Nc2ccc(Nc3cccc(F)c3)cc2)ccc2c1C(=O)N(C1CCC(=O)NC1=O)C2` (centres unmarked) [Example 9, [2-(2,6-dioxopiperidin-3-yl)-4-methoxy-3-oxo-2,3-dihydro-1H-isoindol-5-yl]methyl N-{4-[(3-fluorophenyl)amino]phenyl}carbamate], at GSPT1, the DC50 was more than 14 µM and the Dmax amounted to 38%. For the same molecule, on Cyclin E1, the DC50 was determined as 0.648 µM, the Dmax came out at 86% and the “Ratio of GSPT1 DC50/Cyclin E1 DC50” value was more than 22. In addition, in the assay on Phospho-Rb (Ser807/811), the pIC50 was 5.52 and the Emax came out at 85%.

`COc1c(COC(=O)Nc2ccc(Oc3cc(F)c(F)cc3F)cc2C)ccc2c1C(=O)N(C1CCC(=O)NC1=O)C2` (centres unmarked) [Example 45, [2-(2,6-dioxopiperidin-3-yl)-4-methoxy-3-oxo-2,3-dihydro-1H-isoindol-5-yl]methyl N-[2-methyl-4-(2,4,5-trifluorophenoxy)phenyl]carbamate]: at GSPT1, the DC50 was more than 14 µM and the Dmax stood at 38%. Besides, on Cyclin E1, the DC50 was determined as 0.129 µM, the Dmax is 112% and the “Ratio of GSPT1 DC50/Cyclin E1 DC50” value is recorded as more than 108. Moreover, in the assay on Phospho-Rb (Ser807/811), the pIC50 was 6.95 and the Emax worked out at 116%.

For the molecule `COc1c(COC(=O)Nc2ccc(Oc3ccc(F)cc3C)cc2F)ccc2c1C(=O)N(C1CCC(=O)NC1=O)C2` (centres unmarked) [Example 95, [2-(2,6-dioxopiperidin-3-yl)-4-methoxy-3-oxo-2,3-dihydro-1H-isoindol-5-yl]methyl N-[2-fluoro-4-(4-fluoro-2-methylphenoxy)phenyl]carbamate], on GSPT1, the DC50 was more than 14 µM and the Dmax turned out to be 36%. In addition, at Cyclin E1, the DC50 was determined as 0.274 µM, the Dmax was determined as 110% and the “Ratio of GSPT1 DC50/Cyclin E1 DC50” value is recorded as more than 51. Moreover, in the assay with Phospho-Rb (Ser807/811), the pIC50 is 7.20 and the Emax is 125%.

With `COc1cc(Oc2cccc(F)c2)ccc1NC(=O)OCc1ccc2c(c1OC)C(=O)N(C1CCC(=O)NC1=O)C2` (centres unmarked) [Example 48, [2-(2,6-dioxopiperidin-3-yl)-4-methoxy-3-oxo-2,3-dihydro-1H-isoindol-5-yl]methyl N-[4-(3-fluorophenoxy)-2-methoxyphenyl]carbamate], on GSPT1, the DC50 was more than 14 µM and the Dmax amounted to 46%. Besides, at Cyclin E1, the DC50 was 0.139 µM, the Dmax stood at 111% and the “Ratio of GSPT1 DC50/Cyclin E1 DC50” value is recorded as more than 101. In the assay with Phospho-Rb (Ser807/811), the pIC50 is 7.16 and the Emax was found to be 108%.

Consider `COc1c(COC(=O)Nc2ccc(Oc3c(F)cccc3F)cc2)ccc2c1C(=O)N(C1CCC(=O)NC1=O)C2` (centres unmarked) [Example 112, [2-(2,6-dioxopiperidin-3-yl)-4-methoxy-3-oxo-2,3-dihydro-1H-isoindol-5-yl]methyl N-[4-(2,6-difluorophenoxy)phenyl]carbamate], for which, on GSPT1, the DC50 was more than 14 µM and the Dmax was found to be 26%. Moreover, on Cyclin E1, half-maximal degradation (DC50) was put at 0.226 µM, the Dmax was determined as 105% and the “Ratio of GSPT1 DC50/Cyclin E1 DC50” value is more than 62. Moreover, in the assay with Phospho-Rb (Ser807/811), the pIC50 is 7.34 and the Emax was 115%.

For the molecule `O=C1CCC(N2Cc3ccc(COC(=O)Nc4ccc(Oc5ccccc5)cc4)c(O[C@@H]4CCCOC4)c3C2=O)C(=O)N1` (stereo partly drawn) [Example 142, [2-(2,6-dioxopiperidin-3-yl)-4-[(3R)-oxan-3-yloxy]-3-oxo-2,3-dihydro-1H-isoindol-5-yl]methyl N-(4-phenoxyphenyl)carbamate], on GSPT1, the DC50 is more than 14 µM and the Dmax amounted to 4%. On Cyclin E1, it took 0.022 µM to reach half-maximal degradation (DC50), the Dmax is 108% and the “Ratio of GSPT1 DC50/Cyclin E1 DC50” value is on record as more than 635. Besides, in the assay on Phospho-Rb (Ser807/811), the pIC50 was 6.84 and the Emax is 139%.

For `O=C1CCC(N2Cc3ccc(COC(=O)Nc4ccc(Oc5ccc(F)c(F)c5)cc4)c(OC4CCCC4)c3C2=O)C(=O)N1` (centres unmarked) [Example 151, [4-(cyclopentyloxy)-2-(2,6-dioxopiperidin-3-yl)-3-oxo-2,3-dihydro-1H-isoindol-5-yl]methyl N-[4-(3,4-difluorophenoxy)phenyl]carbamate], on GSPT1, the DC50 was more than 14 µM and the Dmax worked out at 10%. At Cyclin E1, the DC50 was determined as 0.071 µM, the Dmax amounted to 108% and the “Ratio of GSPT1 DC50/Cyclin E1 DC50” value is more than 196. In the assay with Phospho-Rb (Ser807/811), the pIC50 is 7.51 and the Emax is 113%.

For `COc1c(COC(=O)Nc2ccc(Oc3ccc(F)c(F)c3)cc2Cl)ccc2c1C(=O)N(C1CCC(=O)NC1=O)C2` (centres unmarked) [Example 46, [2-(2,6-dioxopiperidin-3-yl)-4-methoxy-3-oxo-2,3-dihydro-1H-isoindol-5-yl]methyl N-[2-chloro-4-(3,4-difluorophenoxy)phenyl]carbamate], on GSPT1, the DC50 was more than 14 µM and the Dmax worked out at 42%. On Cyclin E1, the DC50 came out at 0.357 µM, the Dmax was determined as 105% and the “Ratio of GSPT1 DC50/Cyclin E1 DC50” value is reported as more than 39. Further, in the assay on Phospho-Rb (Ser807/811), the pIC50 is 6.42 and the Emax is 102%.

In the case of `O=C1CCC(N2Cc3ccc(COC(=O)Nc4ccc(Oc5ccc(F)c(F)c5)cc4)c(OCC(=O)N4CCOCC4)c3C2=O)C(=O)N1` (centres unmarked) [Example 178, [2-(2,6-dioxopiperidin-3-yl)-4-[2-(morpholin-4-yl)-2-oxoethoxy]-3-oxo-2,3-dihydro-1H-isoindol-5-yl]methyl N-[4-(3,4-difluorophenoxy)phenyl]carbamate], at GSPT1, the DC50 is more than 14 µM and the Dmax was 16%. Moreover, on Cyclin E1, the DC50 turned out to be 0.11 µM, the Dmax was determined as 105% and the “Ratio of GSPT1 DC50/Cyclin E1 DC50” value is listed as more than 127. Further, in the assay with Phospho-Rb (Ser807/811), the pIC50 was 6.88 and the Emax amounted to 126%.

`O=C1CCC(N2Cc3ccc(COC(=O)Nc4ccc(Oc5ccc(F)c(F)c5)cc4)c(OC(F)F)c3C2=O)C(=O)N1` (centres unmarked) [Example 61, [4-(difluoromethoxy)-2-(2,6-dioxopiperidin-3-yl)-3-oxo-2,3-dihydro-1H-isoindol-5-yl]methyl N-[4-(3,4-difluorophenoxy)phenyl]carbamate]: at GSPT1, the DC50 is more than 14 µM and the Dmax was found to be 22%. Moreover, on Cyclin E1, half-maximal degradation (DC50) was put at 0.157 µM, the Dmax amounted to 104% and the “Ratio of GSPT1 DC50/Cyclin E1 DC50” value is given as more than 89. For the same molecule, in the assay with Phospho-Rb (Ser807/811), the pIC50 was 6.39 and the Emax was 107%.

A word on the DC50: it is the concentration at which degradation of the target reaches its halfway point. High values mean degradation only at high concentration, low ones degradation at low concentration. The Dmax is the greatest extent of degradation seen. One may read the pIC50 as −log10 of the IC50, conventionally taken in molar units.
